Molecules are shown by their SMILES.

The record followed here is US20040102431A1, “Substituted amino-aza-cycloalkanes useful against malaria” (priority 2000, published 2004).

The first assay deals with plasmepsin II (Plasmodium falciparum, UniProt P46925). Kind of assay: biochemical.
Sequence of plasmepsin II (P46925 125-453): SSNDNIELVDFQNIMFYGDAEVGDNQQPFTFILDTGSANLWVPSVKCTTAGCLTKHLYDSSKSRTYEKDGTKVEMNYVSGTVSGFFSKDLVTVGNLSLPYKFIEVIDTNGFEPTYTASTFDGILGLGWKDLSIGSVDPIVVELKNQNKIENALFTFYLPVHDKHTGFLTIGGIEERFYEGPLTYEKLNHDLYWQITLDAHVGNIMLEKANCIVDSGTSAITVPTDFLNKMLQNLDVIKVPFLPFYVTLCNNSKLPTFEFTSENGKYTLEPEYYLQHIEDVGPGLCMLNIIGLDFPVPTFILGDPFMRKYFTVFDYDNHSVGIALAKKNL
Conditions: not given
A word on the IC50: it is the midpoint of a concentration-inhibition curve. `CCCCCc1ccc(C(=O)N(CCCc2ccccc2)C2CCN(Cc3ccccc3)CC2)cc1` [Example 2] gave a half-inhibitory concentration (IC50) of 1500 nM.

Staying with this assay, now noted: Additional Examples table; FRET, pH 5, 37° C., 40 min, substrate 1 μM; read-out: IC50 (nM) on plasmepsin II.
As to `CCCCCc1ccc(C(=O)N(Cc2ccc(OCc3ccccc3)cc2)C2CCCN(Cc3ccccc3)C2)cc1` (racemic) [Example 105, (rac.)-N-(4-Benzyloxybenzyl)-N-(1-benzylpiperidin-3-yl)-4-pentyl-benzamide], the IC50 amounted to 458 nM.

For `CCCCCc1ccc(C(=O)N(Cc2ccc(-c3ccc(OC)c(OC)c3)cc2)C2CCN(CC3=CCCCC3)CC2)cc1` [Example 38, N-(1-Cyclohex-1-enylmethyl-piperidin-4-yl)-N-(3′,4′-dimethoxybiphenyl-4-ylmethyl)-4-pentylbenzamide], the 50% inhibitory concentration (IC50) came out at 19 nM.

For the molecule `CCCCCc1ccc(C(=O)N(Cc2ccc(-c3cccnc3)cc2)C2CCN(CCC(C)C)CC2)cc1` [Example 39, N-[1-(3-Methylbutyl)piperidin-4-yl]-4-pentyl-N-(4-pyridin-3-yl-benzyl)benzamide], the IC50 came out at 20 nM.

Take `CCCCCc1ccc(C(=O)N(Cc2ccc(-c3ccc(C#N)cc3)cc2)C2CCN(CC3=CCCCC3)CC2)cc1` [Example 40, N-(4′-Cyanobiphenyl-4-ylmethyl)-N-(1-cyclohex-1-enylmethyl-piperidin-4-yl)-4-pentylbenzamide]: the IC50 was determined as 25 nM.

As for `CCCCCc1ccc(C(=O)N(Cc2ccc(-c3ccc(OC)c(OC)c3)cc2)C2CCN(Cc3ccncc3)CC2)cc1` [Example 41, N-(3′,4′-Dimethoxybiphenyl-4-ylmethyl)-4-pentyl-N-(1-pyridin-4-ylmethylpiperidin-4-yl)benzamide], the IC50 was 25 nM.

As for `CCCCCc1ccc(C(=O)N(Cc2ccc(-c3ccc(C#N)cc3)cc2)C2CCN(Cc3ccncc3)CC2)cc1` [Example 42, N-(4′-Cyano-biphenyl-4-ylmethyl)-4-pentyl-N-(1-pyridin-4-ylmethylpiperidin-4-yl)benzamide], the IC50 was 28 nM.

For the molecule `CCCCCc1ccc(C(=O)N(Cc2ccc(-c3ccc(OC)c(OC)c3)cc2)C2CCN(Cc3ccoc3)CC2)cc1` [Example 43, N-(3′,4′-Dimethoxybiphenyl-4-ylmethyl)-N-(1-furan-3-ylmethylpiperidin-4-yl)-4-pentylbenzamide], the IC50 stood at 31 nM.

`CCCCCc1ccc(C(=O)N(Cc2ccc(-c3ccc(OCCO)cc3)cc2)C2CCN(Cc3ccncc3)CC2)cc1` [Example 44, N-[4′-(2-Hydroxyethoxy)-biphenyl-4-ylmethyl]-4-pentyl-N-(1-pyridin-4-ylmethylpiperidin-4-yl)benzamide]: the IC50 was 39 nM.

As for `CCCCCc1ccc(C(=O)N(Cc2ccc(-c3cccnc3)cc2)C2CCN(Cc3ccsc3)CC2)cc1` [Example 45, 4-Pentyl-N-(4-pyridin-3-yl-benzyl)-N-(1-thiophen-3-ylmethylpiperidin-4-yl)benzamide], the half-maximal inhibitory concentration (IC50) is 42 nM.

In the case of `CCCCCc1ccc(C(=O)N(Cc2ccc(-c3ccc(OC)c(OC)c3)cc2)C2CCN(Cc3cccnc3)CC2)cc1` [Example 46, N-(3′,4′-Dimethoxybiphenyl-4-ylmethyl)-4-pentyl-N-(1-pyridin-3-ylmethylpiperidin-4-yl)benzamide], the concentration for half-maximal inhibition (IC50) is 45 nM.

On to `CCCCCc1ccc(C(=O)N(Cc2ccc(-c3cccnc3)cc2)C2CCN(CC3CCCCC3)CC2)cc1` [Example 47, N-(1-Cyclohexylmethyl-piperidin-4-yl)-4-pentyl-N-(4-pyridin-3-yl-benzyl)benzamide], for which the 50% inhibitory concentration (IC50) was 46 nM.

In the case of `CCCCCc1ccc(C(=O)N(Cc2ccc(-c3ccc(OC)c(OC)c3)cc2)C2CCN(Cc3ccccc3)CC2)cc1` [Example 48, N-(1-Benzylpiperidin-4-yl)-N-(3′,4′-dimethoxybiphenyl-4-ylmethyl)-4-pentylbenzamide], the IC50 amounted to 48 nM.

Consider `CCCCCc1ccc(C(=O)N(Cc2ccc(-c3ccc4c(c3)OCO4)cc2)C2CCN(Cc3ccoc3)CC2)cc1` [Example 49, N-(4-Benzo[1,3]dioxol-5-yl-benzyl)-N-(1-furan-3-ylmethylpiperidin-4-yl)-4-pentylbenzamide], for which the concentration for half-maximal inhibition (IC50) turned out to be 52 nM.

On to `CCCCCc1ccc(C(=O)N(Cc2ccc(-c3ccc4c(c3)OCO4)cc2)C2CCN(Cc3ccncc3)CC2)cc1` [Example 50, N-(4-Benzo[1,3]dioxol-5-yl-benzyl)-4-pentyl-N-(1-pyridin-4-ylmethylpiperidin-4-yl)benzamide], for which the half-maximal inhibitory concentration (IC50) came to 54 nM.

Consider `CCCCCc1ccc(C(=O)N(Cc2ccc(-c3ccc(OCCO)cc3)cc2)C2CCN(Cc3ccoc3)CC2)cc1` [Example 51, N-(1-Furan-3-ylmethypiperidin-4-yl)-N-[4′-(2-hydroxyethoxy)biphenyl-4-ylmethyl]-4-pentylbenzamide], for which the IC50 turned out to be 57 nM.

As for `CCCCCc1ccc(C(=O)N(Cc2ccc(-c3ccc4c(c3)OCO4)cc2)C2CCN(Cc3ccccc3)CC2)cc1` [Example 52, N-(4-Benzo[1,3]dioxol-5-yl-benzyl)-N-(1-benzylpiperidin-4-yl)-4-pentylbenzamide], the IC50 was 58 nM.

In the case of `CCCCCc1ccc(C(=O)N(Cc2ccc(-c3ccccc3F)cc2)C2CCN(Cc3ccccc3)CC2)cc1` [Example 53, N-(1-Benzylpiperidin-4-yl)-N-(2′-fluorobiphenyl-4-ylmethyl)-4-pentylbenzamide], the IC50 is 61 nM.

Regarding `CCCCCc1ccc(C(=O)N(Cc2ccc(-c3cccnc3)cc2)C2CCN(Cc3ccoc3)CC2)cc1` [Example 54, N-(1-Furan-3-ylmethylpiperidin-4-yl)-4-pentyl-N-(4-pyridin-3-yl-benzyl)benzamide], the half-inhibitory concentration (IC50) came to 64 nM.

As to `CCCCCc1ccc(C(=O)N(Cc2ccc(-c3ccc(C#N)cc3)cc2)C2CCN(Cc3cccnc3)CC2)cc1` [Example 55, N-(4′-Cyanobiphenyl-4-ylmethyl)-4-pentyl-N-(1-pyridin-3-ylmethylpiperidin-4-yl)benzamide], the half-inhibitory concentration (IC50) is 68 nM.

For the molecule `CCCCCc1ccc(C(=O)N(Cc2ccc(-c3ccccc3)cc2)C2CCN(Cc3ccc(OC)cc3)CC2)cc1` [Example 56, N-Biphenyl-4-ylmethyl-N-[1-(4-methoxybenzyl)piperidin-4-yl]-4-pentylbenzamide], the concentration for half-maximal inhibition (IC50) stood at 71 nM.

`CCCCCc1ccc(C(=O)N(Cc2ccc(-c3ccc4c(c3)OCO4)cc2)C2CCN(CC3=CCCCC3)CC2)cc1` [Example 57, N-(4-Benzo[1,3]dioxol-5-yl-benzyl)-N-(1-cyclohex-1-enylmethyl-piperidin-4-yl)-4-pentyl-benzamide]: the IC50 was 75 nM.

Turning to `CCCCCc1ccc(C(=O)N(Cc2ccc(OCc3ccc(F)cc3)cc2)C2CCN(Cc3ccccc3)CC2)cc1` [Example 58, N-(1-Benzyl-piperidin-4-yl)-N-[4-(4-fluoro-benzyloxy)-benzyl]-4-pentyl-benzamide], the concentration for half-maximal inhibition (IC50) was 79 nM.

The same assay, now with this note: […]; FRET, pH 5, 37° C., 40 min, substrate 1 μM; read-out: IC50 (nM) on plasmepsin II.
For the molecule `CCCCCc1ccc(CN(Cc2ccc(-c3ccccc3)cc2)C2CCCN(Cc3ccccc3)CC2)cc1` (racemic) [Example 34], the IC50 came out at 1970 nM.

For `CCCCCc1ccc(C(=O)N(Cc2ccc(-c3ccccc3)cc2)C2CCCN(Cc3ccccc3)CC2)cc1` (racemic) [Example 35], the IC50 is 1700 nM.

Take `CCCCCc1ccc(C(=O)N(Cc2ccc(OCc3ccccc3)cc2)C2CCN(Cc3ccccc3)CC2)cc1` [Example 1]: the IC50 worked out at 70 nM.

`CCCCOc1ccc(C(=O)N(Cc2ccc(OCc3ccccc3)cc2)C2CCN(Cc3ccccc3)CC2)cc1` [Example 3]: the 50% inhibitory concentration (IC50) was determined as 1700 nM.

Take `CCCCCCCCCCCC(=O)N(Cc1ccc(OCc2ccccc2)cc1)C1CCN(Cc2ccccc2)CC1` [Example 6]: the IC50 turned out to be 1800 nM.

For `CCCCCc1ccc(C(=O)N(Cc2ccc(Oc3ccccc3)cc2)C2CCN(Cc3ccccc3)CC2)cc1` [Example 7], the IC50 was determined as 462 nM.

As for `CCCCCCCCCCCC(=O)N(Cc1ccc(Oc2ccccc2)cc1)C1CCN(Cc2ccccc2)CC1` [Example 9], the IC50 is 1700 nM.

Regarding `CCCCCc1ccc(C(=O)N(Cc2ccc(OCc3ccccc3)c(OCc3ccccc3)c2)C2CCN(Cc3ccccc3)CC2)cc1` [Example 10], the half-maximal inhibitory concentration (IC50) was determined as 1200 nM.

Regarding `CCCCOc1ccc(C(=O)N(Cc2ccc(OCc3ccccc3)c(OCc3ccccc3)c2)C2CCN(Cc3ccccc3)CC2)cc1` [Example 11], the IC50 was determined as 3200 nM.

Regarding `CCCCCCCCCCCC(=O)N(Cc1ccc(OCc2ccccc2)c(OCc2ccccc2)c1)C1CCN(Cc2ccccc2)CC1` [Example 13], the IC50 came to 2400 nM.

In the case of `CCCCCc1ccc(C(=O)N(Cc2ccc(-c3ccccc3)cc2)C2CCN(Cc3ccccc3)CC2)cc1` [Example 14], the IC50 amounted to 84 nM.

As for `CCCCOc1ccc(C(=O)N(Cc2ccc(-c3ccccc3)cc2)C2CCN(Cc3ccccc3)CC2)cc1` [Example 15], the IC50 was found to be 1300 nM.

Take `CCCCCCCCCCCC(=O)N(Cc1ccc(-c2ccccc2)cc1)C1CCN(Cc2ccccc2)CC1` [Example 16]: the IC50 is 1300 nM.

Take `CCCCCc1ccc(C(=O)N(Cc2ccc(C(F)(F)F)cc2)C2CCN(Cc3ccccc3)CC2)cc1` [Example 18]: the IC50 stood at 148 nM.

Regarding `CCCCCc1ccc(C(=O)N(Cc2ccc(OCc3ccccc3)c(OC)c2)C2CCN(Cc3ccccc3)CC2)cc1` [Example 22], the concentration for half-maximal inhibition (IC50) was 793 nM.

Regarding `CCCCCc1ccc(C(=O)N(Cc2ccc(CCCC)cc2)C2CCN(Cc3ccccc3)CC2)cc1` [Example 24], the IC50 was determined as 427 nM.

With `CCCCCc1ccc(C(=O)N(Cc2ccc(OCCCC)cc2)C2CCN(Cc3ccccc3)CC2)cc1` [Example 25], the 50% inhibitory concentration (IC50) worked out at 220 nM.

As for `CCCCCc1ccc(CN(C(=O)c2ccc(CCCCC)cc2)C2CCN(Cc3ccccc3)CC2)cc1` [Example 26], the IC50 was found to be 497 nM.

With `CCCCCc1ccc(CN(Cc2ccc(C(F)(F)F)cc2)C2CCN(Cc3ccccc3)CC2)cc1` [Example 30], the IC50 is 695 nM.

Turning to `CCCCCc1ccc(CN(Cc2ccc(-c3ccccc3)cc2)C2CCN(Cc3ccccc3)CC2)cc1` [Example 31], the half-inhibitory concentration (IC50) amounted to 210 nM.

As to `CCCCCc1ccc(C(=O)N(Cc2ccc(-c3ccc(C#N)cc3)cc2)C2CCN(Cc3ccoc3)CC2)cc1` [Example 32], the half-maximal inhibitory concentration (IC50) amounted to 18 nM.

For `CCCCCc1ccc(CN(Cc2ccc(-c3ccc(OCCO)cc3)cc2)C2CCN(Cc3ccccc3)CC2)cc1` [Example 33], the IC50 was determined as 96 nM.

For `CCCCCc1ccc(C(=O)N(Cc2ccc(-c3ccccc3)cc2)[C@H]2CCN(Cc3ccccc3)C2)cc1` [Example 36], the IC50 is 164 nM.
